Reference: patent US20260009799A1, “CA-IX TARGETING FLUORESCENT PROBES” (BRACCO IMAGING S.P.A., priority 2022, published 2026)

Key:
[1] = biological target: T1, CA-IX expressing HT-29 cells (Homo sapiens, UniProt Q16790); assay: Cellular binding assessment by flow cytometry; conditions: HT-29 cells, 1 hour 30 min on ice, flow cytometry; read-out: CA-IX receptor affinity (KD, nM to HT-29 cells)
T1 construct: CA-IX, expressed in its physiological environment at the cell-surface; host or cells: HT-29 human colorectal adenocarcinoma cells
Method: Human colon adenocarcinoma HT-29 cells (ATCC) used for the cellular binding experiments were cultured in McCoy's 5A medium (Sigma-Aldrich), supplemented with 10% HyClone Fetal Clone III (Euroclone), 2 mM L-glutamine (Sigma-Aldrich), 100 IU/mL penicillin, 0.1 mg/mL streptomycin, 0.25 μg/mL amphotericin B (Antibiotic-Antimycotic solution, Life Technologies) and cells were grown at 37° C. in humidified atmosphere enriched with 5% CO2. DPBS without MgCl2 and CaCl2) (Sigma-Aldrich) was used for cell rinsing.
Indeed, by using the anti-human CA-IX antibody MAB2188 (R&D Systems) and the DAKO […], according to the instruction of the datasheet, HT-29 cells were estimated to express about 150,000 CA-IX molecules per cell. Thus, HT-29 cells were used to measure the binding of all compounds to CA-IX, expressed in its physiological environment at the cell-surface. Briefly, HT-29 cells were detached with StemPro® Accutase® Cell Dissociation Reagent (Life Technologies), collected in DPBS and counted. At least 2·10^5 HT-29 cells were placed in 1.5 mL tubes on ice and resuspended in 50-100 μL of cold FACS buffer (eBioscience™ Flow Cytometry Staining Buffer, Invitrogen) containing scalar concentrations of compounds (HF-1, reference 2, and compound 1: range 0-20 μM; reference 3: range 0-24 μM; compound 2: range 0-10 μM). After incubation (1 hour and 30 min on ice in the dark), cells were rinsed 3 times in 300 μL of cold FACS buffer by centrifugation (5 min, 4° C., 350 RCF), discarding the supernatant. Cell pellets were then resuspended in 200 μL of cold FACS buffer (or in an adequate volume in order to obtain no more than 1000 recorded events per μL during FACS analysis) and analyzed with the flow cytometer Accuri™ C6 (BD Biosciences). The mean cell-associated fluorescence was plotted against concentration and the dissociation constant at equilibrium (KD) was inferred by mathematical fitting with GraphPad Prism v.9 software, according to the following equation: […]
where Bmax is the maximum specific binding in the same units as Y; KD is the equilibrium dissociation constant, in the same units as X; NS is the slope of nonspecific binding in Y units divided by X units; and background is the amount of nonspecific binding with no added Compound.
All compounds were analyzed in at least three independent experiments.

[2] = biological target: T2, human serum albumin (HSA) (Homo sapiens, UniProt P02768); assay: Binding to albumin (ultrafiltration, absorbance of filtrates); format: in vitro ADME; conditions: 4.76 μM probe in PBS, 10 KDa cut off ultrafiltration, 25° C.; read-out: HSA affinity (KA, M^−1) (converted)
T2 construct: purchased Sigma-Aldrich A9511
T2 sequence (P02768 25-609): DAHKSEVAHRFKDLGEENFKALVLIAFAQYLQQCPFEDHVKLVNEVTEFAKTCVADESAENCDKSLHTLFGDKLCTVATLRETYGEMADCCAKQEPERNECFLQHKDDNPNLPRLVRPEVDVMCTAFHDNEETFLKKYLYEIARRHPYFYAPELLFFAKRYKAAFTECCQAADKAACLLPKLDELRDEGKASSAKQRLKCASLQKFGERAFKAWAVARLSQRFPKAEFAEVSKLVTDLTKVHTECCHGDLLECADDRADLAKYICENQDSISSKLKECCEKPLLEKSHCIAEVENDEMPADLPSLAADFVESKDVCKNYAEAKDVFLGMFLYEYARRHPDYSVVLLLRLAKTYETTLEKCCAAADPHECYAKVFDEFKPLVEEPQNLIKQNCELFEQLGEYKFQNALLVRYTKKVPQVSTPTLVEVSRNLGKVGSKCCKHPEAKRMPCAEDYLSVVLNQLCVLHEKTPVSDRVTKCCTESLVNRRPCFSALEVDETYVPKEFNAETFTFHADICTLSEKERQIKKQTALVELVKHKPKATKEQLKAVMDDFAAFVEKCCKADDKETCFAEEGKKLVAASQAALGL
Method: The affinity of the probes for human serum albumin (HSA) was determined to assess the influence of structural features on their albumin binding properties. Briefly, HSA (A9511, Sigma-Aldrich) was prepared in a […] stock solution in PBS and used to obtain a series of dilutions in PBS (0, 9.52·10^−7, 4.76·10^−6, 9.52·10^−6, 1.90·10^−5, 3.81·10^−5, 5.71·10^−5, 9.52·10^−5, 1.43·10^−4, 1.90·10^−4, 2.86·10^−4, 3.81·10^−4 M), in presence of 4.76 μM of the CA-IX-targeting probe (prepared from a 50 μM stock solution in PBS), in a total volume of 0.525 mL. The samples were centrifuged (10000 g for 30 min at 25° C.) in a Microcon device (10 KDa MW cut off, Amicon Ultra-0.5 Centrifugal Filter Unit with Ultracel-10 membrane) and the absorbance measurements of the filtrates were obtained with the spectrophotometer at the maximum absorbance wavelength of the fluorophore.
Data analysis was performed by fitting the raw data, using Microsoft Excel Solver, with the equation:
where ΔA/b=Absorbance measured (b=1 cm), KRL=KA calculated by fitting, Δε·Rt are calculated by fitting, and [L]=HSA concentration. ΔA/b values were experimentally obtained by subtracting the absorbance of “0 HSA sample” to the absorbance of each other sample.

[3] = test system: hypoxic HT-29 colorectal tumor, subcutaneously induced; assay: In vivo tumor optical imaging (IVIS Spectrum), tumor-to-background ratio; parameters: species or system mice; conditions: 24 hours after intravenous administration, 1 nmol/mouse, tumor vs hind limb muscle
Method: HT-29 cells were collected and washed once with serum-free medium. Five million HT-29 cells were suspended in 0.1 mL serum-free medium and injected subcutaneously in the right flank of 5 weeks old mice. Tumor development was followed by caliper measurement twice a week, from 7 days after inoculation. Tumor volume was calculated according to the formula: (L*W2)/2, where L and W are the maximum length and width of the tumor.
Optical Imaging experiments on HT-29 tumor bearing animals were performed after administration of Reference 1, 2 and 3, and compounds 1 and 2, all at a dose of 1 nmol/mouse in an administration volume of 0.1 mL (corresponding to about 5 mL/kg, considering a 20 g-mouse) at an injection rate of about 1 mL/min, by the IVIS Spectrum system when the tumor reached at least 200 mm^3 volume. For each group, in vivo OI experiments were performed at 0.5, 1, 2, 3, 4, 6 and 24 hours after intravenous administration of the fluorescent compounds. During imaging experiments animals were maintained under gaseous anesthesia. Regions of interest (ROIs) were drawn on the tumor and on a reference background healthy region (hind limb muscle) of the mouse for each fluorescence image at every time point to evaluate signal intensity in the tissues (expressed as Average Radiant Efficiency). The ratio between the fluorescence signal in the tumor and in the background healthy tissue (tumor-to-background ratio, TBR) was then calculated to assess the contrast.
All the compounds of the invention and the References were tested at a dose of 1 nmol/mouse.

[4] = test system: HT-29 excised tumors and tissues; assay: Ex vivo biodistribution in excised tumors and organs; parameters: species or system mice; conditions: 1 nmol; for Organ-to-muscle ratio, intestine (mean ± SD) / Organ-to-muscle ratio, kidney (mean ± SD) / Organ-to-muscle ratio, liver (mean ± SD) / Organ-to-muscle ratio, skin (mean ± SD) / Organ-to-muscle ratio, spleen (mean ± SD) / Organ-to-muscle ratio, stomach (mean ± SD): ex vivo, 24 hours after administration; for ex vivo TBR (mean ± SD), HT-29 tumor: samples collected 24 hours after administration, tumor vs hind limb muscle
Method: The ex vivo biodistribution of the representative compounds 1 and 2 and of the reference compounds (at 1 nmol/mouse) was evaluated in HT-29 excised tumors and tissues at the end of the in vivo OI sessions 24 hours post intravenous administration. At the end of the in vivo experiment, animals were euthanized by overdose of gaseous anesthesia followed by cervical dislocation. Tumor tissue, muscle, and other organs of interest were removed for ex vivo fluorescent signal measurements. The fluorescence signal intensity was measured by the IVIS Spectrum system. Regions of interest (ROIs) were drawn around each organ and tumor using the Living Image Software (PerkinElmer) and evaluating signal intensity in the tissues (expressed as Average Radiant Efficiency). The ratio between the fluorescence signal in the organs and tumor was then calculated to assess the contrast to hind limb muscle (representing the background).

[5] = biological target: recombinant bovine CA-II enzyme (bCAII) (Bos taurus, UniProt P00921); assay: Fluorescence-based dansylamide (DNSA) displacement assay on carbonic anhydrase catalytic site
Sequence of recombinant bovine CA-II enzyme (bCAII) (P00921 whole entry): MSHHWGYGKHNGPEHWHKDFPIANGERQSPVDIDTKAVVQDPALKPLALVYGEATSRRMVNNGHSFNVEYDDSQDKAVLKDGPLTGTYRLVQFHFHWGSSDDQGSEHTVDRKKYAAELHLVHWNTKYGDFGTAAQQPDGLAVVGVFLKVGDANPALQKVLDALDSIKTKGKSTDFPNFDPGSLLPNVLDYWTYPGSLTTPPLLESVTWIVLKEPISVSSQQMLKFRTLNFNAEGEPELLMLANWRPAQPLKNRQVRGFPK

[6] = Optical characterization (excitation/emission maxima, molar extinction coefficient); format: physicochemical
Method: A dual-beam UV-VIS spectrophotometer (Lambda 40, Perkin Elmer) was used to determine the absorbance (Abs) of the compounds of the invention. Emission/excitation (Em/Ex) spectra were carried out on a spectrofluorometer (FluoroLog-3 1IHR-320, Horiba Jobin Yvon) equipped with an F-3018 integrating sphere accessory. The measurements were performed using an excitation wavelength at maximum absorbance of different dyes, and the sample was excited with a 450 W Xenon light Source. Detection was performed by photomultiplier tubes (PMT-NIR) cooled detector or by TBX-04 detector. Dye solutions were carefully prepared to have an absorbance lower than 0.1 (optical densities) to minimize re-absorption phenomena.
The compounds of the invention were characterized in terms of their optical properties in vitro in aqueous medium (i.e., water/PBS pH 7.4) and in a clinical chemistry control serum (Seronorm, Sero SA), mimicking the chemical composition and optical properties of human serum. All solutions were freshly prepared. In particular, the compounds of the invention are characterized by absorption maxima comprised in the range from about 750 nm to 780 nm.
The excitation and emission maxima in PBS and Seronorm and the molar extinction coefficient (ε) in water of representative compounds of formula (I) are shown in Table I in comparison with the known CA-IX targeting fluorescent probe named Hypoxyfluor-1 (HF-1, for instance disclosed in Bioconjugate Chem 2018, 29, 3320-3331). […] Moreover, the extinction coefficients were higher than 200,000 mM^−1 cm^−1 for all compounds.

[7] = as above; format: physicochemical; conditions: in water
[8] = after injection into the patient; cited from earlier work

Kd [1] | Kd [2] | Organ-to-muscle ratio, intestine (mean ± SD) [4] | Organ-to-muscle ratio, kidney (mean ± SD) [4] | Organ-to-muscle ratio, liver (mean ± SD) [4] | Organ-to-muscle ratio, skin (mean ± SD) [4] | Organ-to-muscle ratio, spleen (mean ± SD) [4] | Organ-to-muscle ratio, stomach (mean ± SD) [4] | Kd [5] | Max Em (nm, PBS pH 7.4) ([6]; emission maximum, PBS pH 7.4) | Max Em (nm, Seronorm) ([6]; emission maximum, Seronorm control serum) | Max Ex (nm, PBS pH 7.4) ([6]; excitation maximum, PBS pH 7.4) | Max Ex (nm, Seronorm) ([6]; excitation maximum, Seronorm control serum) | molar extinction coefficient (ε) [7] | Molecule | in vivo TBR (mean ± SD) [3] | ex vivo TBR (mean ± SD), HT-29 tumor [4] | time after injection to reach tumor/blood ratios suitable for imaging [8]
349 ± 49 nM | 69.9 µM | 3.0 ± 0.3 | 19.7 ± 2.2 | 6.2 ± 1.3 | 1.7 ± 0.4 | 1.7 ± 0.4 | 6.1 ± 0.7 | 0.0558 ± 0.0011 µM |  |  |  |  |  | CC(=O)NC(CCCCn1cc(CCCC(=O)Nc2nnc(S(N)(=O)=O)s2)nn1)C(=O)NCCOCCOCCNC(=O)CCCCCN1/C(=C/C=C2\CCCC(/C=C/C3=[N+](CCCCS(=O)(=O)[O-])c4ccc(C(=O)NC[C@H](O)[C@@H](O)[C@H](O)[C@H](O)CO)cc4C3(C)C)=C2Oc2ccc(S(=O)(=O)O)cc2)C(C)(C)c2cc(C(=O)NC[C@H](O)[C@@H](O)[C@H](O)[C@H](O)CO)ccc21 (stereo partly shown) [Reference 2] | 3.4 ± 0.6 | 9.2 ± 3.3 | 
 | 6.4 µM | 2.2 ± 1.3 | 2.4 ± 0.3 | 5.7 ± 0.2 | 1.4 ± 0.0 | 1.4 ± 0.3 | 4.0 ± 1.7 |  | 798 nm | 808 nm | 772 nm | 792 nm | 255000 M⁻¹ cm⁻¹ | CC1(C)C(/C=C/C2=C(Oc3ccc(CCC(=O)NCCCCCCCC(=O)Nc4nnc(S(N)(=O)=O)s4)cc3)C(=C/C=C3/N(CCCCS(=O)(=O)O)c4ccc(S(=O)(=O)O)cc4C3(C)C)/CCC2)=[N+](CCCCS(=O)(=O)[O-])c2ccc(S(=O)(=O)O)cc21 [Reference 1] | 1.8 ± 0.3 | 3.1 ± 0.3 | 
251 ± 44 nM | 24 µM | 2.7 ± 0.9 | 15.8 ± 3.4 | 3.6 ± 1.0 | 2.0 ± 0.5 | 1.2 ± 0.3 | 6.7 ± 1.4 | 0.0302 ± 0.001 µM |  |  |  |  |  | CC(=O)NC(CCCCn1cc(CCCC(=O)Nc2nnc(S(N)(=O)=O)s2)nn1)C(=O)NCCOCCOCCNC(=O)CCCCCN1/C(=C/C=C/C=C/C=C/C2=[N+](CCC(C)S(=O)(=O)[O-])c3ccc(C(=O)NC[C@H](O)[C@@H](O)[C@H](O)[C@H](O)CO)cc3C2(C)C)C(C)(C)c2cc(C(=O)NC[C@H](O)[C@@H](O)[C@H](O)[C@H](O)CO)ccc21 (stereo partly shown) [Reference 3] | 4.7 ± 0.6 | 14.7 ± 2.3 | 
 |  |  |  |  |  |  |  |  |  |  |  |  |  | ^124I-cG250: chimeric version of monoclonal antibody G250 labeled with radionuclide 124I |  |  | 2 to 7 days
